Assay results: patent publication US12714682B2, “Calixarene compounds and uses thereof” (UNIVERSITÄT WIEN, priority 2019, dated 2026)
Entries after “also recorded” stand apart in the source; their conditions may differ.

Experiments:
[1] = tested on: SH-SY5Y (neuroblastoma cell line); test: RNAseq global gene expression in differentiated SH-SY5Y cells; assay type: cell-based, human
Description: To determine the cellular response to SCA-744 (Cat. No. 55523-250 MG Sigma-Aldrich), the global changes in gene expression upon treatment of human in vitro cultured cells, SH-SY5Y (neuroblastoma cell line: SH-SY5Y-ATCC-CRL-2266) were analysed by RNAseq analysis. SH-SY5Y were cells differentiated with retinoic acid and Phorbol-12-Myristate-13-Acetate (Presgraves et al. Experimental Neurology 2004, 190(1), pp. 157-170). Cell cultures were treated for 24 hours with 500 μM of SCA-744 or vehicle (DPBS). Total RNA was isolated to prepare libraries using the Lexogen SENSE mRNA kit and sequenced using a HiSeq2500 (Illumina) running in 50 bp single-read modes using sequencing chemistry v4. Differentially expressed genes (DEGs) were identified by applying the statistical tests of DESeq (Anders & Huber, Genome biology 2010, 11(10), p. R106), and edgeR (Robinson et al. Bioinformatics 2009, 26(1), pp. 139-140.) packages. The comparison was made with Homo sapiens identifiers.

NQO1 = NQO1 immunoblot in HeLa cells; assay type: cell-based, human; details: 48 hours
Description: A specific anti-oxidative effect or activity of a compound is proven, if induces the expression of NQO1 in mammalian cells to a higher level than over vehicle treated cells, preferably by ~3 fold when the compound is used at 500 μM, as determined by a standard assay: Semi-quantitative western blot analysis. HeLa cells are treated with vehicle, 50, 100 and 500 μM of the compound for 48 h and lysed in Triton X-100 extraction buffer (50 mM HEPES [pH 7.4], 140 mM NaCl, 1% Triton X-100, 1 mM EDTA, 0.3 mM DTT and Complete Protease Inhibitor Cocktail). 25 μg of whole cell extract are separated on a 10% SDS-PAGE, after transfer to a PVDF membrane (Bio-Rad), proteins detected by use of standard immunoblotting procedures. […] For the analysis and quantification of the protein levels, Gel Analyzer from ImageJ (National Institute of Health, USA: http://imagej.nih.gov/ij) is used.
To verify experimentally the anti-oxidative effect of SCA-744, the induction of one of these three genes, NQO1, a major anti-oxidative enzyme was investigated. […] In fact, no NQO1 was detected in control cells under the applied experimental conditions, while a prominent signal was induced even at 50 μM, the lowest concentration of SCA-744 tested, that increased by increasing SCA-744 concentrations (approximately 3.5 fold higher signal at 500 μM). […]

LDL-R [2] = test: LDL-R immunoblot in HeLa cells; assay type: cell-based, human; details: 50 or 500 μM, 24 or 48 hours, no signal in control
Description: As illustrated in the Table 1 (FIG. 10), the SCA-744 affects the expression of several genes involved in lipid metabolism, such as the Low-density Lipoprotein Receptor, a major determinant of cholesterol levels in plasma. LDLR. […] To assess directly the effect of SCA-744 on the level of LDL-R expression, HeLa cells were treated with SCA-744 at 50 or 500 μM concentrations for 24 or 48 hours. Cells were harvested, cell lysate prepared and then analysed by immunoblotting using an anti-human LDL-R antibody (C7: sc-18823, Santa Cruz Biotechnologies).

LDL-R [3] = test: LDL-R immunofluorescence microscopy in HeLa cells; assay type: cell-based, human; details: 50 and 500 μM, 48 hours
Description: In another set of experiments, HeLa cells were treated the same way (50 and 500 μM of SCA-744 for 48 hours). Cells were fixed with 4% paraformaldehyde solution for 10 min at RT and permeabilized with 0.1% Triton X-100 for 15 min at RT and analysed by immunofluorescence microscopy using the same anti-human LDLR antibody employed for the immunoblotting. This detection method was more sensitive, and indicated the presence of LDL-R even in control cells.

Osteopontin (OPN) = test: 15N-1H HSQC NMR binding to osteopontin
Description: In order to verify the predicted heparan sulfate mimicking activity of SCA-744, its physical interaction was probed with a prototypical HS-binding protein Osteopontin (OPN), a component of the extracellular matrix (ECM). To this end, NMR spectroscopy was used to directly probe the interaction and map the location of the interaction site along the protein backbone. The experimental strategy was as follows: First, ^15N-labelled OPN was prepared following well-established molecular biology technology techniques. Individual residue positions are directly monitored via the so-called ^15N-^1H Heteronuclear Single-Quantum Coherence (HSQC) spectroscopy, where individual cross peaks in the two-dimensional (2D) frequency spectrum corresponds to individual residue positions (amino acids) of the protein. Ligand binding changes the chemical environment of residues located in the binding site and leads to a change in the HSQC spectrum. Since the signal assignment is available, the residue positions which are affected by ligand binding can easily be identified by comparing HSQC spectra of the apo (ligand-free) and ligand-bound state of the protein (FIG. 7A). […] It is very convenient to analyze the chemical shift changes (induced by ligand binding) as a function of residue positions (FIG. 7B,C). Residues that display the largest chemical shift changes are typically part of the binding interface. […] Therefore, it can be concluded that SCA-744 and HS share the same ligand interaction sites and therefore are in competition for binding.

[4] = 500 μM, 24 hours, differentiated SH-SY5Y

binding sites on OPN (chemical shift changes by residue) (Osteopontin (OPN); HS compared with SCA-744): overlapping binding sites
Structure (SMILES): O=S(=O)(O)c1cc2c(O)c(c1)Cc1cc(S(=O)(=O)O)cc(c1O)Cc1cc(S(=O)(=O)O)cc(c1O)Cc1cc(S(=O)(=O)O)cc(c1O)C2 [SCA-744, 4-sulfocalix[4]arene]
genes for LDLR, INSIG1 and DHCR24/Seladin-1 [1]: found to be modulated
genes involved in inflammation, anti-oxidative, anti-ageing response and lipid metabolism (RNAseq) [1, 4]: differentially regulated
mRNA expression of anti-oxidative genes CHAC1, NQO1, SLC7A11 (RNASeq) [1, 4]: significant up-regulation
mRNA expression of key genes involved in pro-inflammatory response [1, 4]: down regulates key genes involved in pro-inflammatory response
NQO1 immunoblot signal increase (NQO1; HeLa, 500 μM, prominent signal already at 50 μM, none in control): approximately 3.5 fold
NQO1 protein expression (immunoblot) (NQO1; HeLa, 50, 100 and 500 μM): significantly increases the expression; also recorded: very significant up-regulation
LDL-R protein (immunoblot) (LDL-R [2]): induces the expression of LDLR; also recorded: the LDL-R was detected in the cell lysates
level of LDL-R (immunofluorescence, semi-quantitative) (LDL-R [3]): significantly increased the level of LDL-R in a concentration dependent manner
binding to OPN (HSQC spectra ligand-free vs ligand-bound) (Osteopontin (OPN); 15N-labelled OPN): binds to a heparan sulfate binding protein, osteopontin; also recorded: unambigious proof for SCA-744 binding to OPN
